{
  "source": "paper PMC5823474",
  "about": "“A natural agonist of mosquito TRPA1 from the medicinal plant Cinnamosma fragrans that is toxic, antifeedant, and repellent to the yellow fever mosquito Aedes aegypti” (PLoS Neglected Tropical Diseases, 2018)",
  "biological_target": "T1, AgTRPA1 (Transient Receptor Potential A1) (Anopheles gambiae, UniProt B3G3I7)",
  "T1 construct": "AgTRPA1 cRNA expressed in Xenopus laevis oocytes",
  "T1 sequence (B3G3I7 1-1248)": "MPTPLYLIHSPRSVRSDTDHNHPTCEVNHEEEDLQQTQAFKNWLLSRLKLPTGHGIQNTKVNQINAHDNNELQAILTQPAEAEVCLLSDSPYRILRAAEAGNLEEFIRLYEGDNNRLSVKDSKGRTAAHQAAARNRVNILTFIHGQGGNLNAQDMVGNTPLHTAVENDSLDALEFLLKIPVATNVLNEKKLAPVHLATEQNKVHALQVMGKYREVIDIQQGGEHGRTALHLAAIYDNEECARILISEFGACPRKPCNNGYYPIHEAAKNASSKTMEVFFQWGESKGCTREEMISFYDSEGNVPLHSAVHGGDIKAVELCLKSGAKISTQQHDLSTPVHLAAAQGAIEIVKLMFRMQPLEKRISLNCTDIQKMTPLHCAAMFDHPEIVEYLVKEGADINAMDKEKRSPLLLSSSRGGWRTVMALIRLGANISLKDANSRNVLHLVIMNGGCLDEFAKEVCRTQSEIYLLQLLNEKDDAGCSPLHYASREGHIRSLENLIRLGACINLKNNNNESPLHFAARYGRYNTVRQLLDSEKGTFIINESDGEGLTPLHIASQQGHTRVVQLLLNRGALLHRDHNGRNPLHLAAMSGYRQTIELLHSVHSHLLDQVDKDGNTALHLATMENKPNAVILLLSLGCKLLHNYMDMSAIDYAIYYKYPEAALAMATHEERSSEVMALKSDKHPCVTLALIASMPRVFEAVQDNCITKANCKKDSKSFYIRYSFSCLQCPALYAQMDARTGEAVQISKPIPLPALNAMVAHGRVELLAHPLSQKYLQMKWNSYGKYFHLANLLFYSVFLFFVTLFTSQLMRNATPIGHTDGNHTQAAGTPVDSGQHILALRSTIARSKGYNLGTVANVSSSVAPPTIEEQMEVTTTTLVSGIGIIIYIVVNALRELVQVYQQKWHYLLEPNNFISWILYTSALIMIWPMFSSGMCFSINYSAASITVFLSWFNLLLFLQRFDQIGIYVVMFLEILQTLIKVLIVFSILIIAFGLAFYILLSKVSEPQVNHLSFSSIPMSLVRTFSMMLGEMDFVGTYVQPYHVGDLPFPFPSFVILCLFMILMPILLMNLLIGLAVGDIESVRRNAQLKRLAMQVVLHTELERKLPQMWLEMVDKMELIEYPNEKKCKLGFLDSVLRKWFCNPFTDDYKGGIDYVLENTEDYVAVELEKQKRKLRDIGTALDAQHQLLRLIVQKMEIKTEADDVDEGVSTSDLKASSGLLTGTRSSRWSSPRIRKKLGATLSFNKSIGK",
  "assay": "two-electrode voltage clamp in Xenopus oocytes, weaker agonist at […]; no response in H2O-injected oocytes",
  "assay_type": "cell-based",
  "data": [
    {"smiles": "CC(=O)O[C@@H]1C=C(C2O[C@@H]3O[C@@H](O)C4=C[C@@H](OC(C)=O)[C@H]5C(C)(C)CCC[C@]5(C)[C@]43O2)[C@](O)(C=O)[C@@]2(C)CCCC(C)(C)[C@H]12", "note": "(stereo partly shown) [CFRAG, cinnafragrin A]", "values": [
      {"measurement": "two-electrode voltage clamp in Xenopus oocytes, weaker agonist at 10 μM; no resp", "value": "CFRAG produced a similar response, but the peak Im elicited by CDIAL"}
    ]}
  ]
}
